Results published in ChEMBL document CHEMBL5528066, “Discovery of Novel N-(Anthracen-9-ylmethyl) Benzamide Derivatives as ZNF207 Inhibitors Promising in Treating Glioma” (J Med Chem, 2024).

Key:
[1] = tested on: H4; experiment: Inhibition of colony formation in human H4 cells assessed as reduction in colony area at 5 uM treated on day 1 and measured after 14 days by crystal violet staining based microscopic analysis relative to control; assay type: functional; conditions: H4, 336 h, time 14 day
[2] = tested on: MDR1; experiment: Apparent permeability across apical to basolateral side in MDCKII-MDR1 cells at 1 uM incubated for 2 hrs by LC-MS/MS analysis; assay type: ADME, cell-based, Canis lupus familiaris; conditions: dog, MDCK-MDR1
[3] = Toxicity in male C57BL/6 mouse assessed as change in cellular structure of spleen at 45 mg/kg, po administered once a day for 2 weeks by H and E staining based analysis; assay type: organism-based; conditions: in vivo, 336 h
[4] = tested on: LN-229-Luc; experiment: Antitumor activity against human Ln-229-Luc cells xenografted in po dosed BALB/c nude mouse administered once a day and measured after 3 to 31 days; assay type: functional, organism-based; conditions: dose 15-45 mg/kg, time 3-31 day

For `N#CC1(C(=O)NCCC2CCN(Cc3ccccc3)CC2)CC2(Br)c3ccccc3C1c1ccccc12` (racemic), the inhibition at 5 µM [1] was 100%, the Papp A→B at 2 h, 1 µM [2] was 1.26 ×10⁻⁶ cm/s and the Activity [3] was “Non-Toxic”. For the same molecule, the Activity [4] was “Dose-Dependent Effect”.
